Experimental data as given in patent publication US20080145465A1, “Sesquiterpene lactone extract from artemisia leucodes for reducing inflammation and down-regulating pro-inflammatory gene expression” (priority 2006, published 2008).
Where “and” joins values, the source holds several entries; their conditions need not be identical. Equal values may be shown once.

Tests used:
COX-2 = molecular target: T1, COX-2 (Ovis aries, UniProt P79208); assay: Colorimetric COX inhibitor screening assay, COX-2; assay type: biochemical, ovine
T1 construct: purchased Cayman Chemical Company
T1 sequence (P79208 17-603): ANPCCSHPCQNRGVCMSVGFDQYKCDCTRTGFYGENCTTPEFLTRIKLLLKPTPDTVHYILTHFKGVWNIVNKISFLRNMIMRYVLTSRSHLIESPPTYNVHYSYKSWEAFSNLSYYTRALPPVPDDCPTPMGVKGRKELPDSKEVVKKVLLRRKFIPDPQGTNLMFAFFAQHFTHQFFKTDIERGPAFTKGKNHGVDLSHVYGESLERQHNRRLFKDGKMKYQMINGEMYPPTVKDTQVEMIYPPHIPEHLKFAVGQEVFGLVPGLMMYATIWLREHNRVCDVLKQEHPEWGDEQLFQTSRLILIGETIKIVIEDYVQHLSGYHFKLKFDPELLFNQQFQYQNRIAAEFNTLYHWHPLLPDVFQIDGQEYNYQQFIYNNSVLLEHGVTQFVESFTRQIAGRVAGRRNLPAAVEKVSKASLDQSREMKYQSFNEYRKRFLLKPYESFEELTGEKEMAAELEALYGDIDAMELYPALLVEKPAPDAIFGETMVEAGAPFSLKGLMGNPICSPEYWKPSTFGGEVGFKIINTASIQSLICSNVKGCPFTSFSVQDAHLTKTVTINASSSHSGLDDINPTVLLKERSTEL
Experimental: An ovine COX inhibitor screening assay (Cayman Chemical Company, Ann Arbor, Mich.) was used to measure inhibition of purified COX-1 and COX-2. This assay measures the peroxidase component of cyclooxygenases colorimetrically by monitoring the appearance of oxidized N,N,N′,N′-tetramethyl-p-phenylenediamine (TMPD) at 590 nm. Tablets of Vioxx (rofecoxib; Merck & Co., Inc., Whitehouse Station, N.J.) were ground and dissolved in methanol (1 mg/mL) to use as a positive control. AL-1, leukomisin, and austricin were also dissolved in methanol at 1 mg/mL. The assay was performed following manufacturer instructions. Vioxx, vehicle (100% initial activity), or treatments were added to a 96-well plate along with 180 μL assay mixture provided by the manufacturer containing 150 μL assay buffer, 10 μL heme, and 10 μL enzyme (COX-1 or COX-2). A background correction row received no enzyme and 10 μL additional assay buffer. After 5 min incubation at room temp, 20 μL of a colorimetric substrate solution containing TMPD and 20 μL arachadonic acid diluted in assay buffer were added to the plate. The plate was incubated for 5 min and the absorbance was read at 590 nm using a microplate reader (Molecular Devices, Sunnyvale, Calif.). To calculate percent inhibition, average absorbance was calculated for each sample (n=3). The background blank well absorbance was subtracted from each sample.
[(100% Initial activity-Blank)−(Treatment-Blank)/(100% Initial activity-Blank)]*100

[1] = tested on: carrageenan-induced rat paw edema; assay: Carrageenan-induced rat paw edema; assay type: in vivo, Wistar rats; settings: 200 mg/kg oral gavage, n = 5
Experimental: Groups of five adult male and female Wistar rats with body weights from 136 to 170 g were used for this study. Rats were housed five animals per cage in a room kept at 24-26° C. and fed ad libitum. Before the experiment began, rat paw sizes were recorded by measuring paw volume three times on each animal using a plethysmometer (Ugo Basile, Comerio VA, Italy). The values were averaged to give a baseline paw size value. To start the experiment, animals were given a subcutaneous injection of 1% carrageenan (100 μl; Sigma, St. Louis, Mo.) in the area of the back paw to induce an acute inflammatory reaction (paw edema). One hour after carrageenan injection, rats were orally gavaged with AL-1, aspirin, or vehicle control (5% ethanol). Paw size was measured at three hours and five hours after injection. The increase in paw edema at each time point was determined by comparison with paw volume measured pre-injection. Inhibition of edema was calculated by comparison with vehicle control at the same time point.

[2] = tested on: cotton pellet infiltrate and granuloma in rats; assay: Cotton granuloma test; assay type: in vivo; settings: 200 mg/kg oral
Experimental: Free access to standard rat chow and water was provided throughout the test. Three sterile cotton pellets (10 mg) were implanted hypodermically into the groin and abdominal area of rats under Nembutal (Sigma, St. Louis, Mo.) narcosis (40 mg/kg intraperitoneally). AL-1, aspirin (Sigma, St. Louis, Mo.), and vehicle control (5% ethanol) were administered by oral gavage one day before implantation, the day of implantation (1 hour before operation), and subsequently for six days after the surgery, once per day. On the seventh day after surgery, rats were euthanized by means of a large dose of Nembutal (70 mg/kg). Cotton pellets were removed and fresh weights were recorded. The cotton pellets were then were placed into an oven (60° C.) for 24 hours and weighed again.

[3] = tested on: nitric oxide (NO) production from RAW macrophages; assay: Griess assay for NO production by LPS-stimulated RAW macrophages; assay type: cell-based, murine; settings: at 10 μM; positive control

Row | Compound | IC50 (COX-2) | inhibition of paw edema vs vehicle control ([1]; 3 h after carrageenan) | inhibition of paw edema vs vehicle control ([1]; 5 h after carrageenan) | reduction of granuloma [2] | reduction of infiltrate [2] | granuloma (dry weight of pellet) ([2]; once per day, vehicle control 38 ± 7 mg) | infiltrate (wet weight of pellet) ([2]; once per day, vehicle control 139 ± 10 mg) | NO production, % of control [3]
1 | CS(=O)(=O)c1ccc(C2=C(c3ccccc3)C(=O)OC2)cc1 [Vioxx, rofecoxib] | 40 µM |  |  |  |  |  |  | 
2 | CC(=O)Oc1ccccc1C(=O)O [aspirin] |  | 53% and 53 ± 1 % | 56% and 56 ± 1 % | 44% | 34% | 21 ± 3 mg | 92 ± 12 mg | 69 % of control
